{
  "source": "patent US20260182575A1",
  "about": "“MOLECULES HAVING PESTICIDAL UTILITY AND INTERMEDIATES AND PROCESSES RELATED THERETO” (CORTEVA AGRISCIENCE LLC, priority 2022, published 2026)",
  "assay_type_in_all_cases": "in vivo",
  "key": {"[1]": {"tested_on": "Sweet Potato Whitefly (Bemisia tabaci, BEMITA, SPW)", "assay": "Bioassay 2: sweet potato whitefly, cotton seedling foliar spray", "settings": "AI alone"}, "[2]": {"tested_on": "Neotropical Brown Stink Bug (Euschistus heros, EUSCHE, BSB)", "assay": "Bioassay 5: neotropical brown stink bug, artificial agar diet", "protocol": "Stock solutions were prepared with F1 as well as for each of the active ingredients individually. Test solutions were prepared from the stock solutions. Test solutions were prepared containing F1, the individual active ingredients, and mixtures of F1 with each of the active ingredients. The test solution for F1 and the individual active ingredients were prepared by adding 30 μL of the stock solution to a single well of a 96 well plate, then adding 30 μL of DMSO, followed by the addition of 140 μL of a 2:1 mixture of acetone:water as a diluent to create a 0.03% (w/v) solution. […]\nThe test solutions were tested against BSB using the following procedure: an artificial agar diet (2% agar, 12% sucrose) was distributed in 48 well plastic plates (Fisher Scientific™). […] The total number of living BSB nymphs was recorded four days after application. […] Percent control was measured using Abbott's correction formula (W. S. Abbott, J. Econ. Entomol. 18 (1925), pp. 265-267) as follows:\nwhere X=No. of live nymphs on solvent check and Y=No. of live nymphs on treated bean segments. In Table B5 the “Expected % Control” was calculated using the method described in Colby S. R., Weeds, 1967, 15, 20-22. […]"}, "[3]": {"tested_on": "Corn Earworm (Helicoverpa zea, HELIZE, CEW)", "assay": "Bioassay 7: corn earworm, artificial diet, 96 well plate"}},
  "note": "Several values for one entry are separate records, joined by “and”; a condition that tells them apart may be missing. Equal entries are not always repeated.",
  "data": [
    {"smiles": "C[C@]1(COC(=O)C2CC2)[C@@H]2C[C@H](O)[C@@]3(C)Oc4cc(-c5cccnc5)oc(=O)c4[C@H](O)[C@@H]3[C@@]2(C)CC[C@@H]1OC(=O)C1CC1", "note": "[Afidopyropen]", "values": [
      {"measurement": "Average % Control AI", "setting": "[1]; Wt % AI 0.00001, 7-9 days", "result": 0.0, "unit": "%"}
    ]},
    {"smiles": "Cc1c(COC(=O)[C@@H]2[C@H](/C=C(\\Cl)C(F)(F)F)C2(C)C)cccc1-c1ccccc1", "note": "(racemic) [Bifenthrin]", "values": [
      {"measurement": "Average % Control AI", "setting": "[2]; AI alone, Wt % AI 0.0045, EUSCHE, four days", "result": 60.0, "unit": "%"}
    ]},
    {"smiles": "Cc1ccc(COCC(F)(F)F)c(N2C(=O)CS/C2=N\\C(=O)Nc2ccc(-c3ncn(-c4ccc(OC(F)(F)F)cc4)n3)cc2F)c1", "note": "[F1]", "values": [
      {"measurement": "Average % Control F1", "setting": "[3]; F1 alone at 0.00002 wt %", "result": 0.0, "unit": "%"},
      {"measurement": "Average % Control F1", "setting": "[3]; F1 alone at 0.00004 wt %", "result": "62.5% and 50.0%"},
      {"measurement": "Average % Control F1", "setting": "[2]; F1 alone, Wt % F1 0.0045, EUSCHE nymphs, agar diet, four days after application", "result": 7.1, "unit": "%"}
    ]},
    {"smiles": "CN1COCN(Cc2cnc(Cl)s2)/C1=N\\[N+](=O)[O-]", "note": "[Thiamethoxam]", "values": [
      {"measurement": "Average % Control AI", "setting": "[1]; Wt % AI 0.000001, 7-9 days", "result": 5.8, "unit": "%"},
      {"measurement": "Average % Control AI", "setting": "[1]; Wt % AI 0.00001, 7-9 days", "result": 35.9, "unit": "%"}
    ]}
  ]
}
